# Earlier results as cited in patent publication US9272011B2, “Pharmaceutical composition for treating urinary incontinence and enuresis” (LABORATEC, S.L., priority 2012, dated 2016).
# System: enuresis
# Details: enuresis therapy, literature studies
structure (smiles),measurement,value
CN(C)CCCN1c2ccccc2CCc2ccccc21 [Imipramine],response rate,approximately 50%
